Test results taken from ChEMBL document CHEMBL2203238, “Hit to Lead optimization of a novel class of squarate-containing polo-like kinases inhibitors” (Bioorg Med Chem Lett, 2012).
Calls of active or inactive are those of the source. No cut-off for these calls is given here.

Key:
[1] = molecular target: Serine/threonine-protein kinase PLK1 (Homo sapiens, UniProt P53350); assay: Inhibition of recombinant GST-tagged PLK1 using biotin-ahx-AKMETTFYDDALNASFLPSEKKK-amide as substrate after 30 mins by scintillation counting analysis in presence of gamma-[33P]ATP
Sequence of Serine/threonine-protein kinase PLK1 (P53350 whole entry): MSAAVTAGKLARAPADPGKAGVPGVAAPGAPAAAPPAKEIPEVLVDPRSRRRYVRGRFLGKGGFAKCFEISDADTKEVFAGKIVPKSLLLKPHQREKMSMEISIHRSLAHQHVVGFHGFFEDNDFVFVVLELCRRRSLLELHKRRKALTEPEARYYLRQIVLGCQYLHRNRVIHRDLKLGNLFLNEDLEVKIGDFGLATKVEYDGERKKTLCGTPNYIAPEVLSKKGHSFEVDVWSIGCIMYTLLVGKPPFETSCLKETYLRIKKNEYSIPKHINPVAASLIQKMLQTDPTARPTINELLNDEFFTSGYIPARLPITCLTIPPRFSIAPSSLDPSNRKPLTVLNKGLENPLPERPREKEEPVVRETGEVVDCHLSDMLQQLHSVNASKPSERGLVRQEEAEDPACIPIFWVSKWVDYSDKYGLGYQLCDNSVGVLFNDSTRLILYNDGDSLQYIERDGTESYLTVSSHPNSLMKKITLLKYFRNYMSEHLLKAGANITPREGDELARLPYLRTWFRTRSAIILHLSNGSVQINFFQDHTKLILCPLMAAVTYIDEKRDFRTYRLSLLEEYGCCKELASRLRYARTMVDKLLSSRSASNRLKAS

[2] = Oral bioavailability in mouse; type: ADME, organism-based; settings: in vivo
[3] = Half life in mouse; type: ADME, organism-based; settings: in vivo
MIA PaCa-2 = assay: Antitumor activity against human MIAPaCa2 cells xenografted in SCID mouse assessed as tumor growth inhibition at 120 mg/kg/day, ip measured on day 21 to day 44 relative to vehicle-treated control; type: functional, organism-based

| Structure (SMILES) | Ki [1] [nM] | other results |
| --- | --- | --- |
| O=c1c(NCC2CC2)c(Nc2ccnc(Nc3ccc(-c4ccccc4)cc3)n2)c1=O | 14000 | – |
| COc1cc(Nc2nccc(Nc3c(N[C@H](C)C(C)(C)C)c(=O)c3=O)n2)cc(OC)c1OC | 234 | – |
| C[C@@H](Nc1c(Nc2ccccc2)c(=O)c1=O)C(C)(C)C | 32000 | – |
| CC(Nc1c(Nc2ccnc(Nc3ccc(-c4ccccc4)cc3)n2)c(=O)c1=O)c1ccccc1 (centres undefined) | 24900 | – |
| CC(C)CC(C)Nc1c(Nc2ccnc(Nc3ccc(-c4ccccc4)cc3)n2)c(=O)c1=O (centres undefined) | 1180 | – |
| C[C@@H](Nc1c(Nc2ccncc2)c(=O)c1=O)C(C)(C)C | – | bioavailability [2]: 54%; half-life [3]: 23.4 min |
| CC(C)(C)CNc1c(Nc2ccnc(Nc3ccc(-c4ccccc4)cc3)n2)c(=O)c1=O | 1800 | – |
| C[C@@H](Nc1c(Nc2ccnc(Nc3ccc(Br)cc3)n2)c(=O)c1=O)C(C)(C)C | 354 | – |
| Cc1ccc(Nc2nccc(Nc3c(N[C@H](C)C(C)(C)C)c(=O)c3=O)n2)cc1 | 1010 | – |
| C[C@@H](Nc1nccc(Nc2c(N[C@H](C)C(C)(C)C)c(=O)c2=O)n1)c1ccccc1 | 9930 | – |
| C[C@@H](Nc1c(Nc2ccnc(Nc3ccc(OC(F)(F)F)cc3)n2)c(=O)c1=O)C(C)(C)C | 610 | – |
| O=c1c(NCCN2CCOCC2)c(Nc2ccnc(Nc3ccc(-c4ccccc4)cc3)n2)c1=O | 8530 | – |
| C[C@@H](Nc1c(Nc2ccnc(Nc3ccccn3)n2)c(=O)c1=O)C(C)(C)C | 40800 | – |
| Nc1ccn([C@@H]2O[C@H](CO)[C@@H](O)C2(F)F)c(=O)n1 | – | TGI (MIA PaCa-2): Active |
| C[C@@H](Nc1c(Nc2ccnc(Nc3cccc4ccccc34)n2)c(=O)c1=O)C(C)(C)C | 315 | – |
| C[C@@H](Nc1c(Nc2ccnc(Nc3ccc4c(c3)OCCO4)n2)c(=O)c1=O)C(C)(C)C | 255 | – |
| C[C@@H](Nc1c(Nc2ccnc(Nc3ccc(Cl)cc3)n2)c(=O)c1=O)C(C)(C)C | 272 | – |
| C[C@@H](Nc1c(Nc2ccnc(Nc3cccnc3)n2)c(=O)c1=O)C(C)(C)C | > 44000 | – |
| COc1ccc(Nc2nccc(Nc3c(N[C@H](C)C(C)(C)C)c(=O)c3=O)n2)c(OC)c1 | 771 | – |
| C[C@@H](Nc1c(Nc2ccnc(Nc3ccc(Oc4ccccc4)cc3)n2)c(=O)c1=O)C(C)(C)C | 276 | – |
| COc1cc(Nc2ncc(C#N)c(Nc3c(N[C@H](C)C(C)(C)C)c(=O)c3=O)n2)cc(OC)c1OC | 7720 | – |
| C[C@@H](Nc1c(Nc2ccnc(Nc3ccncc3)n2)c(=O)c1=O)C(C)(C)C | > 44000 | – |
| CC(C)(C)Nc1c(Nc2nc(Nc3ccc4c(c3)Cc3ccccc3-4)ncc2F)c(=O)c1=O | > 8800 | – |
| C[C@@H](Nc1c(Nc2cccnc2)c(=O)c1=O)C(C)(C)C | > 44000 | – |
| C[C@@H](Nc1c(Nc2ccnc(Nc3ccccc3)n2)c(=O)c1=O)C(C)(C)C | 465 | – |
| C[C@@H](Nc1c(Nc2ccnc(Nc3cccc(-c4ccccc4)c3)n2)c(=O)c1=O)C(C)(C)C | 333 | – |
| O=c1c(Nc2ccc(OC(F)(F)F)cc2)c(Nc2ccnc(Nc3ccc(-c4ccccc4)cc3)n2)c1=O | 17600 | – |

The next lines start with results.

| Ki [1] [nM] | Structure (SMILES) | other results |
| --- | --- | --- |
| 75 | C[C@@H](Nc1c(Nc2ccnc(Nc3ccc(-c4ccccc4)cc3)n2)c(=O)c1=O)C(C)(C)C | – |
| 85 | C[C@@H](Nc1c(Nc2ccnc(Nc3ccc4ccccc4c3)n2)c(=O)c1=O)C(C)(C)C | – |
| 13 | CCC(C)(C)Nc1c(Nc2ccnc(Nc3ccc(-c4ccccc4)cc3)n2)c(=O)c1=O | – |
| 28 | CC(C)(C)Nc1c(Nc2ccnc(Nc3ccc(-c4cccnc4)cc3)n2)c(=O)c1=O | – |
| 232 | C[C@@H](Nc1c(Nc2ccnc(Nc3ccc(F)cc3)n2)c(=O)c1=O)C(C)(C)C | – |
| 10 | CC(C)(C)Nc1c(Nc2ccnc(Nc3ccc4c(c3)[nH]c3ccccc34)n2)c(=O)c1=O | – |
| 4 | CC(C)(C)Nc1c(Nc2ccnc(Nc3ccc4c(c3)Cc3ccccc3-4)n2)c(=O)c1=O | – |
| 82 | CC(C)(C)Nc1c(Nc2ccnc(Nc3ccc(-c4ccccn4)cc3)n2)c(=O)c1=O | – |
| 14 | CC(C)(C)Nc1c(Nc2ccnc(Nc3ccc(-c4ccccc4)cc3)n2)c(=O)c1=O | – |
| 10 | CC(C)(C)Nc1c(Nc2ccnc(Nc3ccc(-c4cn[nH]c4)cc3)n2)c(=O)c1=O | – |
| 175 | CC(C)(C)Nc1c(Nc2ccnc(Nc3ccc(N4CCOCC4)cc3)n2)c(=O)c1=O | – |
| 166 | CC(C)C(C)Nc1c(Nc2ccnc(Nc3ccc(-c4ccccc4)cc3)n2)c(=O)c1=O (centres undefined) | – |
| 17 | CC(C)(C)Nc1c(Nc2ccnc(Nc3ccc4[nH]ncc4c3)n2)c(=O)c1=O | – |
| 43 | CC(C)(C)Nc1c(Nc2ccnc(Nc3ccc4ncsc4c3)n2)c(=O)c1=O | – |
| 41 | C[C@@H](Nc1c(Nc2ccnc(Nc3ccc4c(c3)Cc3ccccc3-4)n2)c(=O)c1=O)C(C)(C)C | – |
| 22 | CC(C)(C)Nc1c(Nc2ccnc(Nc3ccc4c(c3)CCO4)n2)c(=O)c1=O | – |
| 141 | COc1ccc(Nc2nccc(Nc3c(N[C@H](C)C(C)(C)C)c(=O)c3=O)n2)cc1 | – |
| 165 | C[C@@H](Nc1c(Nc2ccnc(Nc3ccc4c(c3)OCO4)n2)c(=O)c1=O)C(C)(C)C | – |
| 15 | CC(C)(C)Nc1c(Nc2ccnc(Nc3ccc(-c4csnn4)cc3)n2)c(=O)c1=O | – |
| 20 | CC(=O)N1CCc2cc(Nc3nccc(Nc4c(NC(C)(C)C)c(=O)c4=O)n3)ccc21 | – |
| 47 | C[C@H](Nc1c(Nc2ccnc(Nc3ccc(-c4ccccc4)cc3)n2)c(=O)c1=O)C(C)(C)C | – |
